# Values joined by “and” are separate entries in the source; they are usually repeats but may differ in a detail not shown here. Equal values may be shown once.
# Tested on: clinical HIV-1 isolates (AT-101, AT-328, AT-332)
# Test: Hu-PBL-SCID mouse model of human AIDS (HIV-PCR and HIV-culture)
# Type: in vivo
# [1] = 1 mg/ml in water, average 200 mg/kg/day
structure (smiles),measurement,setting,value
"Cc1cn([C@H]2C[C@H](N=[N+]=[N-])[C@@H](CO)O2)c(=O)[nH]c1=O [AZT, zidovudine]",Cx+,[1],4/8
same,PCR+,[1],4/10
same,PCR+ Cx+,[1],4 and 4/8
same,PCR+ CxND,[1],0/2
same,PCR+ Cx−,[1],3 and 4/8
same,PCR− Cx−,[1],0/8
same,mice tested HIV-1 negative,[1],3 of 10
same,gp120 on CD7 cells from peritoneal cavities (flow cytometry),treated Hu-PBL-SCID mice,presence of gp120 on CD7 cells

# From patent US6689362B1, “Method for treating T-lineage leukemias and lymphomas using a CD7-specific monoclonal antibody (TXU-7) linked to the pokeweed antiviral protein (PAP)” (priority 1997, dated 2004)
